Results taken from ChEMBL document CHEMBL3046852, “Synthesis and analgesic activity of new pyridine-based heterocyclic derivatives” (2012).
The source made the active and inactive calls. The calls are words filed in the database; no cut-off is given here.

How the values were obtained:
Mus musculus [1] = assay: Analgesic activity in Mus musculus albino (mouse) assessed as latency time at 25 mg/kg, ip after 30 min by tail-flick test; assay type: functional; conditions: route intraperitoneal
Mus musculus [2] = assay: Analgesic activity in Mus musculus albino (mouse) assessed as latency time at 25 mg/kg, ip after 30 min by hot-plate test; assay type: functional; conditions: route intraperitoneal
Mus musculus [3] = assay: Analgesic activity in Mus musculus albino (mouse) assessed as latency time at 25 mg/kg, ip after 30 min in presence of 2 mg/kg, ip of mecamylamine by tail-flick test; assay type: functional
Mus musculus [4] = assay: Analgesic activity in Mus musculus albino (mouse) assessed as inhibition of formalin-induced paw licking behavior in both phases of formalin response at 25 mg/kg, ip administered 30 min before formalin challenge; assay type: functional, organism-based; design: dose 25 mg/kg
Mus musculus [5] = assay: Analgesic activity in Mus musculus albino (mouse) assessed as latency time at 17.5 mg/kg, ip after 30 min by tail-flick test; assay type: functional; conditions: route intraperitoneal
Mus musculus [6] = assay: Analgesic activity in Mus musculus albino (mouse) assessed as latency time at 17.5 mg/kg, ip after 30 min by hot-plate test; assay type: functional; conditions: route intraperitoneal

SMILES	Time (Mus musculus [1]) [s]	Time (Mus musculus [2]) [s]	Time (Mus musculus [3]) [s]	Activity (Mus musculus [4])	Time (Mus musculus [5]) [s]	Time (Mus musculus [6]) [s]
Cc1cc(=O)[nH]n1C(=O)c1cccnc1	5.26	7.54	–	–	–	–
CC(=O)N1N=C(c2cccnc2)OC1C (stereo not drawn)	8.95	10.03	5.14	Active	–	–
Cc1cc(C)n(C(=O)c2cccnc2)n1	7.69	8.3	5.18	Active	–	–
CC(=O)N1N=C(c2cccnc2)OC1c1ccccc1Cl (stereo not drawn)	5.16	7.77	–	–	–	–
CC(=O)N1N=C(c2ccncc2)OC1c1ccccc1 (stereo not drawn)	6.03	7.78	–	–	–	–
Clc1ccccc1-c1nnc(-c2ccncc2)[nH]1	11.2	13.12	5.12	Active	–	–
CC(=O)N1N=C(c2ccncc2)OC1c1ccccc1[N+](=O)[O-] (stereo not drawn)	4.76	7.48	–	–	–	–
CC(=O)N1N=C(c2cccnc2)OC1c1ccccc1 (stereo not drawn)	8.44	10.03	5.13	Active	–	–
O=[N+]([O-])c1ccccc1-c1nnc(-c2ccncc2)[nH]1	11.8	15.1	5.23	Active	–	–
CC(=O)N1N=C(c2ccncc2)OC1c1ccccc1Cl (stereo not drawn)	6.03	7.81	–	–	–	–
O=[N+]([O-])c1ccccc1-c1nnc(-c2cccnc2)[nH]1	6.15	8.47	–	–	–	–
Cc1cc(=O)[nH]n1C(=O)c1ccncc1	5.7	7.51	–	–	–	–
Cc1cc(C)n(C(=O)c2ccncc2)n1	6.4	8.11	–	–	–	–
CC(=O)N1N=C(c2cccnc2)OC1c1ccccc1[N+](=O)[O-] (stereo not drawn)	4.93	7.29	–	–	–	–
CC(=O)N1N=C(c2ccncc2)OC1C (stereo not drawn)	11.03	12.93	5.14	Active	–	–
c1ccc(-c2nnc(-c3ccncc3)[nH]2)cc1	5.33	7.81	–	–	–	–
Clc1ccccc1-c1nnc(-c2cccnc2)[nH]1	5.53	8.55	–	–	–	–
Cc1nnc(-c2cccnc2)[nH]1	7.99	9.65	5.17	Active	–	–
CC(C)=CCN1CC[C@@]2(C)c3cc(O)ccc3C[C@@H]1[C@@H]2C (relative stereo)	–	–	–	–	12.84	19.89
Cc1n[nH]c(-c2ccncc2)n1	7.62	9.49	5.22	Active	–	–
c1ccc(-c2n[nH]c(-c3cccnc3)n2)cc1	4.73	7.5	–	–	–	–
